Test results taken from PubChem BioAssay (NCI).
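1) Cells in 96-well plates. 2) Compound, 48 h, 5 concentrations. 3) Linear interpolation between surrounding doses. 4) Unreached endpoint = highest concentration. GI50 marks 50% less growth. Definition used: TGI = concentration required for complete inhibition of growth.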

Key:
Assay in all cases: NCI tumour cell line growth inhibition, 48 h
[1] = tested on: A498 renal
[2] = tested on: HL-60(TB) leukemia
[3] = tested on: MOLT-4 leukemia
[4] = tested on: SK-OV-3 ovarian
[5] = tested on: SN12C renal
[6] = tested on: HOP-92 NSCLC
[7] = tested on: HT29 colon
[8] = tested on: OVCAR-5 ovarian
[9] = tested on: NCI-H522 lung
[10] = tested on: HS 578T breast

Row | Compound | TGI [1] | TGI [2] | TGI [3] | TGI [4] | TGI [5] | TGI [6] | TGI [7] | TGI [8] | GI50 [2] | GI50 [6] | GI50 [7] | GI50 [9] | TGI [9] | GI50 [8] | GI50 [4] | GI50 [5] | GI50 [1] | GI50 [10] | TGI [10] | GI50 [3]
1 | C[Si](C)(C)OC1(C#N)C2C3CC4C2C(=O)C2C4C3C21 (centres undefined) | > 100 µM | > 100 µM | > 100 µM | > 100 µM | > 100 µM |  |  |  |  |  |  |  |  |  |  |  |  |  |  | 
2 | CCC1CN2CCc3cc(OC)c(OC)cc3C2CC1CC1c2cc(OC)c(OC)cc2CCN1C(=O)C1CCCN1C(=O)OCc1ccccc1 (centres undefined) | 29.9 µM | 28.9 µM |  |  | 30.6 µM | 22 µM | 27.4 µM | 34.2 µM |  |  |  |  |  |  |  |  |  |  |  | 
3 | O=C1c2ccccc2-c2c1c1ccc([N+](=O)[O-])cc1c(=O)n2CCCBr |  | > 100 µM |  | > 100 µM | > 100 µM | > 100 µM | > 100 µM | > 100 µM | > 100 µM | > 100 µM | > 100 µM | 96.8 µM | > 100 µM | > 100 µM | > 100 µM | > 100 µM |  |  |  | 
4 | N#CC(C(=O)CCC(=O)Nc1cccc(Cl)c1)c1ccccc1 (centres undefined) | > 100 µM | > 100 µM | > 100 µM | > 100 µM | > 100 µM | > 100 µM | > 100 µM | > 100 µM |  |  |  |  | > 100 µM |  |  |  |  |  |  | 
5 | C/C(=N\Nc1ccc2ccccc2n1)c1ccccn1 | 2.48 µM |  | 0.404 µM | 13.6 µM | 14.9 µM |  | 3.09 µM | 14.5 µM |  |  | < 0.0407 µM |  | 0.21 µM | 0.0832 µM | 0.132 µM | 0.0914 µM | 0.239 µM | 1.94 µM | 30.5 µM | < 0.0394 µM
6 | CC(=O)OC1CCn2nnc(CO[Si](C)(C)C(C)(C)C)c21 (centres undefined) |  |  | > 100 µM | > 100 µM | > 100 µM |  | > 100 µM | > 100 µM |  |  |  |  | > 100 µM |  |  |  |  |  |  | 
7 | Cc1cc2c(C)n(Cc3ccc(Cl)cc3Cl)nc2c(C#N)c1C | > 100 µM | > 100 µM | > 100 µM | 47.4 µM | > 100 µM | 36.9 µM | > 100 µM | > 56.2 µM |  |  |  |  | > 100 µM |  |  |  |  |  |  | 
8 | CCOC(=O)C(=O)Nc1c(CC)cccc1C(C)C | > 100 µM |  |  | > 100 µM | > 100 µM | > 100 µM | > 100 µM | > 100 µM |  |  |  |  |  |  |  |  |  |  |  | 
9 | CCOC(=O)C(C)(c1cn(C)c2ccccc12)c1cn(C)c2ccccc12 | > 100 µM | > 100 µM | > 100 µM | > 100 µM |  |  | > 100 µM | > 100 µM |  |  |  |  |  |  |  |  |  |  |  | 
10 | CCOC(=O)C1Oc2ccc([N+](=O)[O-])c3c2C1(O)CCC3 (centres undefined) | > 100 µM | > 100 µM | > 100 µM | > 100 µM | > 100 µM | > 100 µM | > 100 µM | > 100 µM |  |  |  |  | > 100 µM |  |  |  |  |  |  | 
11 | O=C(O)C1(P(=O)(O)O)CC1 | > 100 µM | > 100 µM | > 100 µM | > 100 µM | > 100 µM |  |  |  |  |  |  |  | > 100 µM |  |  |  |  |  |  | 
12 | O=C1C(=O)N(c2ccc(Cl)c(Cl)c2)C(=O)C(=O)C1c1nc2ccccc2s1 | > 100 µM |  | > 100 µM | > 100 µM | > 100 µM | > 100 µM | > 100 µM | > 100 µM |  |  |  |  | > 100 µM |  |  |  |  |  |  | 
13 | COC1CC(OS(=O)(=O)c2ccc(C)cc2)C(OC(=O)c2ccccc2)C(C)O1 (centres undefined) | > 100 µM | > 100 µM | > 100 µM | > 100 µM | > 100 µM | > 100 µM | > 100 µM | > 100 µM | > 100 µM | > 10 µM | > 100 µM | > 100 µM | > 100 µM | > 100 µM | > 100 µM | > 100 µM | > 100 µM |  |  | > 100 µM
14 | O=S(=O)(c1ccccc1)C(CN1CCCCC1)S(=O)(=O)c1ccccc1 |  | > 100 µM | > 100 µM | > 100 µM | > 100 µM | > 100 µM | > 100 µM | > 100 µM |  |  |  |  | > 100 µM |  |  |  |  |  |  | 
15 | Cc1ccc(-c2cc(-c3ccc(C)cc3)nc(NCCNc3ccnc4cc(Cl)ccc34)n2)cc1 | 3.46 µM | 4.15 µM |  | 3.34 µM | 3.29 µM | 2.73 µM | 3.37 µM | 3.07 µM | 2 µM | 1.23 µM | 1.74 µM | 1.75 µM | 3.51 µM | 1.65 µM | 1.75 µM | 1.63 µM | 1.89 µM |  |  | 
16 | CN(C)c1nc(=Nc2ccc3ccccc3c2)ss1 | > 100 µM | 54.7 µM | 20.9 µM | > 100 µM | > 100 µM |  |  |  |  |  |  |  | 65.9 µM |  |  |  |  |  |  | 
17 | c1ccc(SC(CCCCC(Sc2ccccc2)Sc2ccccc2)Sc2ccccc2)cc1 | > 100 µM | > 100 µM | > 100 µM | > 100 µM | > 100 µM | > 100 µM |  |  |  |  |  |  |  |  |  |  |  |  |  | 

Row | Compound | TGI [1] | TGI [2] | TGI [3] | TGI [4] | TGI [5] | TGI [6] | TGI [7] | TGI [8] | GI50 [2] | GI50 [6] | GI50 [7] | GI50 [9] | TGI [9] | GI50 [8] | GI50 [4] | GI50 [5] | GI50 [1] | GI50 [10] | TGI [10] | GI50 [3]
18 | COc1ccc(OC)c(NC(=O)CCC/C(CC(=O)c2ccc(O)c(OC)c2)=N\NC(=O)C[N+](C)(C)C)c1 | > 100 µM | > 100 µM | > 100 µM | > 100 µM | > 100 µM | > 100 µM | > 100 µM | > 100 µM |  |  |  |  | > 100 µM |  |  |  |  |  |  | 
19 | COc1cc(C(=O)C/C(CCC(=O)Nc2ccccc2[N+](=O)[O-])=N\NC(=O)CC#N)ccc1O | > 100 µM | > 100 µM | > 100 µM | > 100 µM | > 100 µM |  | > 100 µM | > 100 µM |  |  |  |  | > 100 µM |  |  |  |  |  |  | 
20 | COc1ccc(C2=C(Cl)c3cc(OC)c(OC)cc3C2Cl)cc1OC (centres undefined) |  | 35.3 µM | 15.4 µM | 53.9 µM | 38.4 µM | 46.1 µM | 29.8 µM | 30.2 µM |  |  |  |  |  |  |  |  |  |  |  | 
21 | CCOC(=O)c1oc2ccc(OC)c3c2c1CCC3 | > 100 µM | > 100 µM | > 100 µM | > 100 µM | > 100 µM | > 100 µM |  | > 100 µM |  |  |  |  | > 100 µM |  |  |  |  |  |  | 
22 | C=C1COC(/C=C(\C)CC/C=C(\C)CCl)C1 (centres undefined) | > 100 µM | > 100 µM | > 100 µM | > 100 µM | > 100 µM | > 100 µM | > 100 µM | > 100 µM |  |  |  |  | > 100 µM |  |  |  |  |  |  | 
23 | Brc1cccc(C2SCc3nc4ccccc4n32)c1 (centres undefined) |  | 34.9 µM | > 100 µM | 65 µM | 33.2 µM | 35.6 µM | 52.3 µM | > 100 µM |  |  |  |  | 36.6 µM |  |  |  |  |  |  | 
24 | O=C1OC(CCCl)(c2ccccc2)CC1CN1CCOCC1 (centres undefined) | > 100 µM | 26.5 µM | 48 µM | > 100 µM | 90.7 µM | 31.6 µM | 46 µM | > 100 µM |  |  |  |  | 33.5 µM |  |  |  |  |  |  | 
25 | Cc1c(C#N)c(=O)[nH]c(=O)n1CCN1CCN(C(=O)NCCCCCCNC(=O)N2CCN(CCn3c(C)c(C#N)c(=O)[nH]c3=O)CC2)CC1 | > 100 µM | > 100 µM | > 100 µM | > 100 µM | > 100 µM | > 100 µM | > 100 µM |  |  |  |  |  |  |  |  |  |  |  |  | 
26 | CCN1CCC(CCOC)(CN2c3ccccc3Sc3ccc(Cl)cc32)C1 (centres undefined) | 7.39 µM |  |  | 3.88 µM | 28.2 µM |  |  | 3.88 µM |  |  |  | 1.74 µM | 3.59 µM | 1.83 µM | 1.91 µM | 12 µM | 1.95 µM | 2.12 µM | 6.55 µM | 
27 | CCCCCCc1cc(C(=O)Nc2cccc(C(F)(F)F)c2)nc(N)n1 | > 100 µM | > 100 µM | > 100 µM | > 100 µM | > 100 µM | > 100 µM | > 100 µM | > 100 µM |  |  |  |  |  |  |  |  |  |  |  | 
28 | CS(=O)(=O)Oc1cccc(/C=N/N=C(\N)NO)c1 | > 100 µM | 52.4 µM |  | 70.8 µM | > 100 µM | > 100 µM | > 100 µM | > 100 µM |  |  |  |  | > 100 µM |  |  |  |  |  |  | 
29 | COc1cc2c(cc1OCCCCOc1cc3c(cc1OC)C(=O)N1CCC[C@H]1CN3)N=C[C@@H]1CCCN1C2=O |  |  | > 100 µM | > 100 µM | 18.2 µM | 3.3 µM | > 23.2 µM | > 28.7 µM |  | 0.366 µM | 2.37 µM | 0.072 µM | 0.386 µM | 3.09 µM | 7.06 µM | 2.29 µM |  | 0.823 µM | 2.63 µM | 0.282 µM
30 | Nn1c(-c2ccccc2Cl)nc2ccccc2c1=O | > 100 µM | > 100 µM | > 100 µM | > 100 µM | > 100 µM | > 100 µM | > 100 µM | > 100 µM |  |  |  |  | > 100 µM |  |  |  |  |  |  | 
31 | C=C1CC[C@@H]2[C@](C)(COC(C)=O)[C@@H](O)CC[C@@]2(C)[C@@H]1COc1ccc2ccc(=O)oc2c1 |  | > 100 µM | > 100 µM |  | > 100 µM | > 100 µM | > 100 µM | > 100 µM | > 100 µM | > 100 µM | > 100 µM | > 100 µM | > 100 µM | > 100 µM |  | > 100 µM |  | 29.9 µM | > 100 µM | > 100 µM
32 | COc1cc2c(cc1OC(=O)CC(C)O)C1C(OC2=O)C(OC(C)=O)C=C2CCN(C)[C@H]21 (some centres undefined) | 45.5 µM |  | > 100 µM | 57.2 µM | > 100 µM | 44.5 µM | > 100 µM | > 100 µM |  |  |  |  | > 100 µM |  |  |  |  |  |  | 
33 | CCCCCCCCCCCC(=O)OCCOCCOCCOCCOCCOCc1ccc(OC)cc1 | > 100 µM | 51.7 µM | > 100 µM | > 100 µM | > 100 µM | > 100 µM | > 100 µM | > 100 µM |  |  |  |  | > 100 µM |  |  |  |  |  |  | 
